Experimental data from paper PMC10041525, “New Dual Inhibitors of Bacterial Topoisomerases with Broad-Spectrum Antibacterial Activity and In Vivo Efficacy against Vancomycin-Intermediate Staphylococcus aureus” (Journal of Medicinal Chemistry, 2023).
In brackets after ≈: the same amount, converted by molar mass. Several values for one entry are separate records, joined by “and”; a condition that tells them apart may be missing. Identical values can stand only once. Like-named read-outs stand apart in the source and are kept apart here.

Legend:
A. baumannii DNA gyrase = A. baumannii DNA gyrase (Acinetobacter baumannii, UniProt A0ABX6CA01); experiment: gel-based supercoiling assay; assay type: biochemical
Method: In all experiments, the activity of the
enzymes was determined prior to the testing of the compound and 1 unit (U) was defined as the
amount of enzyme required to just fully supercoil or decatenate the substrate. This amount of
enzyme was initially used in determination of control inhibitor activity. These experiments were
performed in duplicate. […] The final DMSO
concentration was 1% for all assays. All measurements were performed in quadruplicates. The
condition for each reaction were as follows:
− S. aureus gyrase supercoiling assay
1 U of S. aureus gyrase was incubated with 0.5 µg of relaxed pBR322 DNA in a 30 µL reaction at
magnesium acetate, 10 mM DTT, 2 mM ATP, 500 mM potassium glutamate and 0.05 mg/mL
− S. aureus topo IV decatenation assay
1 U of S. aureus topo IV was incubated with 20 µg kDNA in a 30 µL reaction at 37 °C for 30
mM ATP, 350 mM potassium glutamate and 0.05 mg/mL albumin.
− A. baumannii gyrase supercoiling assay
1 U of A. baumannii gyrase was incubated with 0.5 µg of relaxed pBR322 DNA in a 30 µL reaction
blue), before being loaded on a 1.0% TAE gel run at 80V for 2 hours. Bands were visualised by
ethidium bromide staining for 20 minutes and destaining for 20 minutes. Gels were scanned using
documentation equipment (GeneGenius, Syngene, Cambridge, UK) and % inhibition levels were
measured by determining the relative fluorescence of the supercoiled band using gel scanning
software. […]

[1] = system: S. aureus (MRSA) ATCC 43300; experiment: MIC broth microdilution (CLSI); assay type: cell-based; details: Staphylococcus aureus
Outline: (§1)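 Serial twofold broth microdilution per CLSI in cation-adjusted Mueller Hinton broth 2, with 5 × 10^4 bacterial cells per well in 100 μL. Plates were shaken at 150 rpm, 37 °C, for 18 h, then read at OD600. MIC was the concentration where the mean OD600 increment of triplicates stayed below 1.5-fold background.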

[2] = system: S. aureus (VISA) ATCC 700699; experiment: MIC broth microdilution (CLSI); assay type: cell-based; details: Staphylococcus aureus; read-out: MIC
Outline: as §1

H. influenzae ATCC 49247 = experiment: IHMA QC MIC; assay type: cell-based
From the text: (§2) Supplement jm2c01905_si_004.xlsx, sheet "QC" | column: MIC [µg/mL]

H. influenzae ATCC 49766 = experiment: IHMA QC MIC; assay type: cell-based
From the text: as §2

S. pneumoniae ATCC 49619 [3] = experiment: IHMA QC MIC; assay type: cell-based
From the text: as §2

E. faecalis ATCC 29212 [4] = experiment: IHMA QC MIC; assay type: cell-based
From the text: as §2

E. faecalis ATCC 29212 [5] = system: E. faecalis ATCC 29212; set-up: method as in earlier work; details: QC range for E. faecalis ATCC 29212, ref CLSI; cited from earlier work
[6] = system: Haemophilus influenzae (n = 14); experiment: MIC broth microdilution at IHMA Europe; assay type: cell-based, H. influenzae; details: for MIC: Haemophilus influenzae
E. coli ATCC 25922 = experiment: IHMA QC MIC; assay type: cell-based
P. aeruginosa ATCC 27853 = experiment: IHMA QC MIC; assay type: cell-based
E. faecium (n = 13) = experiment: MIC broth microdilution at IHMA Europe; assay type: cell-based; details: Enterococcus faecium
S. pneumoniae (n = 12) = experiment: MIC broth microdilution at IHMA Europe; assay type: cell-based; details: for MIC: Streptococcus pneumoniae
S. pneumoniae ATCC 49619 [7] = system: S. pneumoniae ATCC 49619; set-up: method as in earlier work; details: QC range for S. pneumoniae ATCC 49619, ref CLSI; cited from earlier work

Sequence of A. baumannii DNA gyrase (A0ABX6CA01 1-822): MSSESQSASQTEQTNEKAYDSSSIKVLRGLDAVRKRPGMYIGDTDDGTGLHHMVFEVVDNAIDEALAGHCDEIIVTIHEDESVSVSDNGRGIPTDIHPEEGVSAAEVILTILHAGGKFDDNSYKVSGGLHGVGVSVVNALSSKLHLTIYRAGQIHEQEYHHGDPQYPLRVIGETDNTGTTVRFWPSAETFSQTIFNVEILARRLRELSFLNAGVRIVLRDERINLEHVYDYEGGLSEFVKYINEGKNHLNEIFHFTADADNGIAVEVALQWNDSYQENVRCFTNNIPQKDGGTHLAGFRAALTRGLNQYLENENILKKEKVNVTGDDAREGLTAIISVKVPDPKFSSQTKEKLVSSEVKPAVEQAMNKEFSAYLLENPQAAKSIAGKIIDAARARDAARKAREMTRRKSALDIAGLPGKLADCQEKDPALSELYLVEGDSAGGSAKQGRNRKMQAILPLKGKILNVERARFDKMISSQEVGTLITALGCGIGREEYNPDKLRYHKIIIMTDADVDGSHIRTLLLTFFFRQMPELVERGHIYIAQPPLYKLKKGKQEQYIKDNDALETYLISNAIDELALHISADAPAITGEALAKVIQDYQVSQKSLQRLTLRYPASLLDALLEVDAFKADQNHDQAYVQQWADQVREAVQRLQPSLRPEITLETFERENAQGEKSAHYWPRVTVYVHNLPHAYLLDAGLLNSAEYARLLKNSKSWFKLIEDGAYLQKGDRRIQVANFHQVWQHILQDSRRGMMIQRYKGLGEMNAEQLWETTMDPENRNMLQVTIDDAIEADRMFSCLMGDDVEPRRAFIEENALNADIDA
Sequence of A. baumannii DNA gyrase (A0ABX6CII0 1-904 partner): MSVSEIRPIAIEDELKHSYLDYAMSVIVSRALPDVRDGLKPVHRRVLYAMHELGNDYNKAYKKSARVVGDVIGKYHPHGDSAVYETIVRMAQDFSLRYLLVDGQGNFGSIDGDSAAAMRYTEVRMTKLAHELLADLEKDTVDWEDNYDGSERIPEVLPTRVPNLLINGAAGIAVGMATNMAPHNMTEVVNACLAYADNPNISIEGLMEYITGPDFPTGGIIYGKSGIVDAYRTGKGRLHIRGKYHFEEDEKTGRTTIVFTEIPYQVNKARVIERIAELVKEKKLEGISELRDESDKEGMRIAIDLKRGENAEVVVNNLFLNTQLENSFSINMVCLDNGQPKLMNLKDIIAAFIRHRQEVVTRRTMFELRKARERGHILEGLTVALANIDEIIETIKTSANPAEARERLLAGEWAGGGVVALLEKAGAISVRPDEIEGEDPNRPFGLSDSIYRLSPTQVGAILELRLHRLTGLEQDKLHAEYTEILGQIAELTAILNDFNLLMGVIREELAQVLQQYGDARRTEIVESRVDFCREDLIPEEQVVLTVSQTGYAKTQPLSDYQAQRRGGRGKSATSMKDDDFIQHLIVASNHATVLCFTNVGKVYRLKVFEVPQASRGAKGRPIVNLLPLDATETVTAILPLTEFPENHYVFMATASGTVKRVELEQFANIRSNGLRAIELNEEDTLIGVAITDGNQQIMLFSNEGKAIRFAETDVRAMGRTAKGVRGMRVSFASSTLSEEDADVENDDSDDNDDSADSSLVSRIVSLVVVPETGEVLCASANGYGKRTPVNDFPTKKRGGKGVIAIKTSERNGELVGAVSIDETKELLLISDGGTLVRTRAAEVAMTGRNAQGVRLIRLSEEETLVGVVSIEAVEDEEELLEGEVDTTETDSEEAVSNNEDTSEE

SMILES: CO[C@@H]1[C@@H](OC(N)=O)[C@@H](O)[C@H](Oc2ccc3c(O)c(NC(=O)c4ccc(O)c(CC=C(C)C)c4)c(=O)oc3c2C)OC1(C)C [novobiocin]
- IC50 (A. baumannii DNA gyrase): 2.17 ± 0.16 nM
- MIC [1]: 0.125 mg/L
- MIC [2]: 0.0312 mg/L

SMILES: CN[C@H](CC(C)C)C(=O)N[C@H]1C(=O)N[C@@H](CC(N)=O)C(=O)N[C@H]2C(=O)N[C@H]3C(=O)N[C@H](C(=O)N[C@H](C(=O)O)c4cc(O)cc(O)c4-c4cc3ccc4O)[C@H](O)c3ccc(c(Cl)c3)Oc3cc2cc(c3O[C@@H]2O[C@H](CO)[C@@H](O)[C@H](O)[C@H]2O[C@H]2C[C@](C)(N)[C@H](O)[C@H](C)O2)Oc2ccc(cc2Cl)[C@H]1O [Vancomycin, vancomycin]
- MIC (H. influenzae ATCC 49247; Haemophilus influenzae, ATCC49247): > 32 mg/L
- MIC (H. influenzae ATCC 49247; QC strain H. influenzae ATCC 49247, test date 2021-11-26): >32 mg/L
- MIC (H. influenzae ATCC 49766; Haemophilus influenzae, ATCC49766): > 32 mg/L
- MIC (H. influenzae ATCC 49766; QC strain H. influenzae ATCC 49766, test date 2021-11-26): >32 mg/L
- MIC (S. pneumoniae ATCC 49619 [3]; QC strain S. pneumoniae ATCC 49619, test date 2021-11-26): 0.12 mg/L (≈ 0.0828 µM)
- MIC (S. pneumoniae ATCC 49619 [3]; Streptococcus pneumoniae, ATCC49619): 0.12 mg/L (≈ 0.0828 µM)
- MIC (E. faecalis ATCC 29212 [4]; Enterococcus faecalis, ATCC29212): 2 mg/L (≈ 1.38 µM)
- MIC (E. faecalis ATCC 29212 [4]; QC strain E. faecalis ATCC 29212, test date 2021-11-26): 2 mg/L (≈ 1.38 µM)
- MIC, CLSI Range (E. faecalis ATCC 29212 [5]): 1 to 4 mg/L
- No. of isolates at MIC [6]: 5 and 9
- MIC ([6]; H. influenzae IHMA N° 1227715): > 32 mg/L
- MIC ([6]; H. influenzae IHMA N° 1241620): > 32 mg/L
- MIC ([6]; H. influenzae IHMA N° 1244149): 32 mg/L (≈ 22.1 µM)
- MIC ([6]; H. influenzae IHMA N° 1249803): > 32 mg/L
- MIC ([6]; H. influenzae IHMA N° 1254355): 32 mg/L (≈ 22.1 µM)
- MIC ([6]; H. influenzae IHMA N° 1258580): > 32 mg/L
- MIC ([6]; H. influenzae IHMA N° 1262734): 32 mg/L (≈ 22.1 µM)
- MIC ([6]; H. influenzae IHMA N° 1272723): > 32 mg/L
- MIC ([6]; H. influenzae IHMA N° 1286846): > 32 mg/L
- MIC ([6]; H. influenzae IHMA N° 1337530): > 32 mg/L
- MIC ([6]; H. influenzae IHMA N° 1440085): > 32 mg/L
- MIC ([6]; H. influenzae IHMA N° 1479509): 32 mg/L (≈ 22.1 µM)
- MIC ([6]; H. influenzae IHMA N° 1952952): > 32 mg/L
- MIC ([6]; H. influenzae IHMA N° 2047461): 32 mg/L (≈ 22.1 µM)
- MIC (E. coli ATCC 25922; Escherichia coli, ATCC25922): > 32 mg/L
- MIC (E. coli ATCC 25922; QC strain E. coli ATCC 25922, test date 2021-11-26): >32 mg/L
- MIC (P. aeruginosa ATCC 27853; Pseudomonas aeruginosa, ATCC27853): > 32 mg/L
- MIC (P. aeruginosa ATCC 27853; QC strain P. aeruginosa ATCC 27853, test date 2021-11-26): >32 mg/L
- MIC (E. faecium (n = 13); E. faecium IHMA N° 1764866): 16 mg/L (≈ 11 µM)
- MIC (E. faecium (n = 13); E. faecium IHMA N° 1765436): 16 mg/L (≈ 11 µM)
- MIC (E. faecium (n = 13); E. faecium IHMA N° 1765746): > 32 mg/L
- MIC (E. faecium (n = 13); E. faecium IHMA N° 1893573): 32 mg/L (≈ 22.1 µM)
- MIC (E. faecium (n = 13); E. faecium IHMA N° 1893846): > 32 mg/L
- MIC (E. faecium (n = 13); E. faecium IHMA N° 1893942): 32 mg/L (≈ 22.1 µM)
- MIC (E. faecium (n = 13); E. faecium IHMA N° 1894055): > 32 mg/L
- MIC (E. faecium (n = 13); E. faecium IHMA N° 1897027): > 32 mg/L
- MIC (E. faecium (n = 13); E. faecium IHMA N° 1897101): > 32 mg/L
- MIC (E. faecium (n = 13); E. faecium IHMA N° 1904592): > 32 mg/L
- MIC (E. faecium (n = 13); E. faecium IHMA N° 2075051): 16 mg/L (≈ 11 µM)
- MIC (E. faecium (n = 13); E. faecium IHMA N° 2077718): > 32 mg/L
- MIC (E. faecium (n = 13); E. faecium IHMA N° 2083787): > 32 mg/L
- No. of isolates at MIC (S. pneumoniae (n = 12)): 5 and 6
- Cumulative % at MIC (S. pneumoniae (n = 12); MIC 1 µg/mL): 100.0%
- No. of isolates at MIC (S. pneumoniae (n = 12); MIC 1 µg/mL): 1
- MIC (S. pneumoniae (n = 12); S. pneumoniae IHMA N° 1775387): 0.25 mg/L (≈ 0.173 µM)
- MIC (S. pneumoniae (n = 12); S. pneumoniae IHMA N° 1776057): 0.25 mg/L (≈ 0.173 µM)
- MIC (S. pneumoniae (n = 12); S. pneumoniae IHMA N° 1785617): 0.12 mg/L (≈ 0.0828 µM)
- MIC (S. pneumoniae (n = 12); S. pneumoniae IHMA N° 1800765): 0.12 mg/L (≈ 0.0828 µM)
- MIC (S. pneumoniae (n = 12); S. pneumoniae IHMA N° 1811259): 0.12 mg/L (≈ 0.0828 µM)
- MIC (S. pneumoniae (n = 12); S. pneumoniae IHMA N° 1831562): 0.25 mg/L (≈ 0.173 µM)
- MIC (S. pneumoniae (n = 12); S. pneumoniae IHMA N° 1902609): 0.25 mg/L (≈ 0.173 µM)
- MIC (S. pneumoniae (n = 12); S. pneumoniae IHMA N° 1979675): 0.25 mg/L (≈ 0.173 µM)
- MIC (S. pneumoniae (n = 12); S. pneumoniae IHMA N° 1991963): 1 mg/L (≈ 0.69 µM)
- MIC (S. pneumoniae (n = 12); S. pneumoniae IHMA N° 2057487): 0.12 mg/L (≈ 0.0828 µM)
- MIC (S. pneumoniae (n = 12); S. pneumoniae IHMA N° 2073087): 0.25 mg/L (≈ 0.173 µM)
- MIC (S. pneumoniae (n = 12); S. pneumoniae IHMA N° 2117109): 0.12 mg/L (≈ 0.0828 µM)
- MIC, CLSI Range (S. pneumoniae ATCC 49619 [7]): 0,12 - 0,5 µg/mL
